According to patent US20250340574A1, “MODULATORS OF CYSTIC FIBROSIS TRANSMEMBRANE CONDUCTANCE REGULATOR” (Vertex Pharmaceuticals Incorporated, priority 2022, published 2025):
pEC50: −log10 of the molar value. Where two headings read alike, the source gives them in different places.

How the values were obtained:
[1] = target: T1, CFTR (F508del/MF-HBE cells) (Homo sapiens, UniProt P13569, DEL508-508); assay: Ussing chamber assay of CFTR-mediated short-circuit currents, Assay C (0.026 μM to 25 μM, 6 concentrations); assay type: cell-based; settings: with 33 nM potentiator and 18 μM Tezacaftor, 20% human serum; for Emax: read-out: C Max activity (%)
T1 construct: human bronchial epithelial (HBE) cells derived from CF subjects heterozygous for F508del and a minimal function CFTR mutation (F508del/MF-HBE); endogenous in cells; host or cells: Primary human bronchial epithelial cells from CF subjects (F508del/MF genotype), differentiated at an air-liquid interface
T1 sequence (P13569 with tags, fused parts or gaps DEL508-508): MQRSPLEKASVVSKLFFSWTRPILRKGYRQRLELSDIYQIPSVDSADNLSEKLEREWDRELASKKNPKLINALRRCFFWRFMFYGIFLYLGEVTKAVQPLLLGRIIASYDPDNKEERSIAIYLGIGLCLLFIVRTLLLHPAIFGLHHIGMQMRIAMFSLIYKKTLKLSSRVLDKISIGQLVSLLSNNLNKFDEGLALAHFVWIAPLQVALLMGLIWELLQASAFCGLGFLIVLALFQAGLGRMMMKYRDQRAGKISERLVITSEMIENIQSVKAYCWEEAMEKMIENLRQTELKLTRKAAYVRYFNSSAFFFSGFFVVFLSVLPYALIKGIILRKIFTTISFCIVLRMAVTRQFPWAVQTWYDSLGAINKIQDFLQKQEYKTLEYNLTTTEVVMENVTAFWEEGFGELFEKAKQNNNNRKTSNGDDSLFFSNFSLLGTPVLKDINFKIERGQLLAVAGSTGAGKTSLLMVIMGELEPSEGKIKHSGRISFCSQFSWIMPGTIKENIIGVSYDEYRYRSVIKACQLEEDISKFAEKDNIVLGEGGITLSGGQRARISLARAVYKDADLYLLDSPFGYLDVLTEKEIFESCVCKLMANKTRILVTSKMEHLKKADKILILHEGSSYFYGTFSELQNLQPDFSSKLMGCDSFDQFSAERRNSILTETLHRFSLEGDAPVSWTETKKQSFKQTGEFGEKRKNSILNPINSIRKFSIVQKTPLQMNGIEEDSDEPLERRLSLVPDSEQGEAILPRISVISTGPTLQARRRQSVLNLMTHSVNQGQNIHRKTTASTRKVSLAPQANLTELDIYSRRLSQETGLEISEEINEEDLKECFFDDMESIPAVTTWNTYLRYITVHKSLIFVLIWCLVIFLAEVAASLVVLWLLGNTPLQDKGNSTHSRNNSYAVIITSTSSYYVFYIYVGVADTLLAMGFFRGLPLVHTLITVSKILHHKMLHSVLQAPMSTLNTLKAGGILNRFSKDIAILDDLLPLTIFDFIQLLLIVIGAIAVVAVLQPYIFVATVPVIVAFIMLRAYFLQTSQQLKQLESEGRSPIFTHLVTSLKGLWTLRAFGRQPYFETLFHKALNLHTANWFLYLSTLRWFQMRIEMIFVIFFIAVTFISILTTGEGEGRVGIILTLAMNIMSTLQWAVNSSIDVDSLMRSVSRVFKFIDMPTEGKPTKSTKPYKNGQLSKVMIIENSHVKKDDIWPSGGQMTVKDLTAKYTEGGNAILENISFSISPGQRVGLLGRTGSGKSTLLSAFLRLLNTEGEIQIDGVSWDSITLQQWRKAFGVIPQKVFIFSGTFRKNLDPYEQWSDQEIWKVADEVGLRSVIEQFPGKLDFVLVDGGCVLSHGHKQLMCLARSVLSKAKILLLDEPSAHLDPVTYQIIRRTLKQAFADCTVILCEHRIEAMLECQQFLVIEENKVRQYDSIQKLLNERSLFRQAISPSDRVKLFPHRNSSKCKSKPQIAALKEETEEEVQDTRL
In short: (§1)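 Short-circuit current was recorded at 37 °C under voltage clamp (0 mV) with amiloride 30 μM apically, forskolin 20 μM activation, then BPO/GlyH-101/inh-172 (20 μM each) to isolate CFTR current. Before recording, corrector exposure lasted 18–24 h with 18 μM tezacaftor, 20% human serum, and 33 nM (dose–response) or 44 nM (1 μM fixed) potentiator, maintained throughout.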

[2] = target: T1, CFTR (F508del/MF-HBE cells); assay: Ussing chamber assay of CFTR-mediated short-circuit currents, Assay D (single concentration of 1 μM); assay type: cell-based; settings: with 44 nM potentiator and 18 μM Tezacaftor, 20% human serum; for D activity at 1 μM (%): 18-24 hours
In short: as §1

Compound | Emax ([1]; 18-24 hours) [%] | pEC50 [1] | D activity at 1 μM (%) [2] | Emax [1] [%] | D act. at 1 μM (%) [2]
Cc1cccc(C(C)C)c1-c1nc2nc(c1C)OC[C@@H](CC(C)(C)C)N(Cc1cnc3oc(C4(C)CC4)cc3n1)C(=O)c1cccc(c1)S(=O)(=O)N2 (atropisomer, axis not shown) [Compound I-213] | > 60 | > 6.00 | +++ (+++ is >60%) |  | 
Cc1cccc(CC(C)C)c1-c1nc2nc(c1C)OC[C@@H](CC(C)(C)C)N(Cc1cnc3cc(C4(C)CC4)n(C)c3n1)C(=O)c1cccc(c1)S(=O)(=O)N2 (atropisomer, axis not shown) [IV-19] |  | > 6.00 |  | > 60 | +++ (+++ is >60%)
Cc1cccc(CC(C)C)c1-c1nc2nc(c1C)OC[C@@H](CC1(C)CC1)N(Cc1cnc3cc(C(C)(C)C)n(C)c3n1)C(=O)c1cccc(c1)S(=O)(=O)N2 (atropisomer, axis not shown) [IV-44] |  | 5.52 to 6.00 |  | > 60 | +++ (+++ is >60%)
Cc1cccc(CC(C)C)c1-c1nc2nc(c1C)OC[C@@H](CC(C)(C)C)N(Cc1ncc3cc(C(C)(C)C)n(C)c3n1)C(=O)c1cccc(c1)S(=O)(=O)N2 (atropisomer, axis not shown) [IV-47] |  | 5.52 to 6.00 |  | > 60 | +++ (+++ is >60%)
Cc1cccc(C)c1-c1cc2nc(n1)NS(=O)(=O)c1cccc(c1)C(=O)N(Cc1cnc3cc(C4(C)CC4)n(C)c3n1)[C@@H](C(C1CCC1)C1CCC1)CO2 (single isomer, unassigned) [IV-20, 11-[di(cyclobutyl)methyl]-6-(2,6-dimethylphenyl)-12-[[5-methyl-6-(1-methylcyclopropyl)pyrrolo[2,3-b]pyrazin-3-yl]methyl]-2,2-dioxo-9-oxa-2λ^6-thia-3,5,12,19-tetrazatricyclo[12.3.1.14,8]nonadeca-1(18),4(19),5,7,14,16-hexaen-13-one] |  | > 6.00 |  | > 60 | +++ (+++ is >60%)
Cc1cccc(C)c1-c1nc2nc(c1C)OC[C@@H](CC(C)(C)C)N(Cc1cnc3oc(C(C)C)cc3n1)C(=O)c1cccc(c1)S(=O)(=O)N2 [Compound I-110] | > 60 | 5.52 to 6.00 | +++ (+++ is >60%) |  | 
COc1c2nc(nc1-c1c(C)cccc1C)NS(=O)(=O)c1cccc(c1)C(=O)N(Cc1cnc3cc(C(C)C)n(C)c3n1)[C@H](CC(C)(C)C)CC2 [Compound I-158] | > 60 | 5.52 to 6.00 | +++ (+++ is >60%) |  | 
Cc1cccc(C)c1-c1nc2nc(c1C)OC[C@@H](CC(C)(C)C)N(Cc1cnc3cc(C(C)C)n(C)c3n1)C(=O)c1cccc(c1)S(=O)(=O)N2 [Compound I-168] | > 60 | > 6.00 | +++ (+++ is >60%) |  | 
Cc1cccc(C)c1-c1nc2nc(c1C)OC[C@@H](C[C@H]1CCCCO1)N(Cc1cnc3cc(C4CC4)n(C)c3n1)C(=O)c1cccc(c1)S(=O)(=O)N2 [Compound I-193] | > 60 | > 6.00 | +++ (+++ is >60%) |  | 
Cc1cccc(C)c1-c1nc2nc(c1C)OC[C@@H](C[C@H]1CCCCO1)N(Cc1cnc3cc(C(C)C)n(C)c3n1)C(=O)c1cccc(c1)S(=O)(=O)N2 [Compound I-194] | > 60 | > 6.00 | +++ (+++ is >60%) |  | 
Cc1cccc(C)c1-c1nc2nc(c1C)OC[C@@H](CC1(C)CC1)N(Cc1cnc3cc(C(C)(C)C)n(C)c3n1)C(=O)c1cccc(c1)S(=O)(=O)N2 [Compound I-222] | > 60 | > 6.00 | +++ (+++ is >60%) |  | 
Cc1cccc(C)c1-c1nc2nc(c1C)OC[C@@H](CC13CC(C1)C3)N(Cc1cnc3cc(C4(C)CC4)n(C)c3n1)C(=O)c1cccc(c1)S(=O)(=O)N2 [Compound I-228] | > 60 | > 6.00 | +++ (+++ is >60%) |  | 
Cc1cccc(C)c1-c1cc2nc(n1)NS(=O)(=O)c1cccc(c1)C(=O)N(Cc1cnc3cc(C(C)(C)C)n(C)c3n1)[C@H](CC(C)(C)C)CO2 [Compound I-239] | > 60 | > 6.00 | +++ (+++ is >60%) |  | 
Cc1cccc(C)c1-c1cc2nc(n1)NS(=O)(=O)c1cccc(c1)C(=O)N(Cc1ncc3cc(C4CC4)n(C)c3n1)[C@H](CC13CC(C1)C3)CO2 [Compound I-264] | > 60 | 5.52 to 6.00 | +++ (+++ is >60%) |  | 
Cc1cccc(C)c1-c1nc2nc(c1C)OC[C@@H](CC(C)(C)C)N(Cc1ncc3cc(C4CC4)n(C)c3n1)C(=O)c1cccc(c1)S(=O)(=O)N2 [Compound I-265] | > 60 | 5.52 to 6.00 | +++ (+++ is >60%) |  | 
COc1c2nc(nc1-c1c(C)cccc1C)NS(=O)(=O)c1cccc(c1)C(=O)N(Cc1cnc3cc(C4(C)CC4)n(C)c3n1)[C@H](COC(C)C)CO2 [IV-11] |  | > 6.00 |  | > 60 | +++ (+++ is >60%)

Results, then the molecule that gave them:

Emax ([1]; 18-24 hours) [%] | pEC50 [1] | D activity at 1 μM (%) [2] | Emax [1] [%] | D act. at 1 μM (%) [2] | Compound
 | 5.52 to 6.00 |  | > 60 | +++ (+++ is >60%) | Cc1cccc(CC(C)C)c1-c1nc2nc(c1C)OC[C@@H](CC1(C)CC1)N(Cc1cnc3oc(C(C)(C)C)cc3n1)C(=O)c1cccc(c1)S(=O)(=O)N2 (atropisomer, axis not shown) [IV-45]
 | > 6.00 |  | > 60 | +++ (+++ is >60%) | Cc1cccc(CC(C)C)c1-c1nc2nc(c1C)OC[C@@H](CC1(C)CC1)N(Cc1cnc3oc(C(C)C)cc3n1)C(=O)c1cccc(c1)S(=O)(=O)N2 (atropisomer, axis not shown) [IV-46]
> 60 | > 6.00 | +++ (+++ is >60%) |  |  | Cc1cccc(C)c1-c1cc2nc(n1)NS(=O)(=O)c1cccc(c1)C(=O)N(Cc1cnc3cc(C4CC4)n(C)c3n1)[C@@H](CCC1(C)CC1)CO2 (stereo in doubt) [Compound I-207]
 | > 6.00 |  | > 60 | +++ (+++ is >60%) | Cc1cccc(C)c1-c1cc2nc(n1)NS(=O)(=O)c1cccc(c1)C(=O)N(Cc1cnc3oc(C4(C)CC4)cc3n1)[C@@H](C(C(C)C)C(C)C)CO2 (stereo in doubt) [IV-31]
> 60 | 5.52 to 6.00 | +++ (+++ is >60%) |  |  | Cc1cccc(C)c1-c1cc2nc(n1)NS(=O)(=O)c1cccc(c1)C(=O)N(Cc1cnc3oc(C)c(C4CC4)c3n1)[C@H](CC13CC(C1)C3)CO2 [Compound I-86]
> 60 | 4.52 to 5.52 | +++ (+++ is >60%) |  |  | Cc1cccc(C)c1-c1cc2nc(n1)NS(=O)(=O)c1cccc(c1)C(=O)N(Cc1cnc3oc(C(C)(C)CO)cc3n1)[C@H](CC13CC(C1)C3)CO2 [Compound I-113, (11R)-11-(1-bicyclo[1.1.1]pentanylmethyl)-6-(2,6-dimethylphenyl)-12-[[6-(2-hydroxy-1,1-dimethyl-ethyl)furo[2,3-b]pyrazin-2-yl]methyl]-2,2-dioxo-9-oxa-2λ^6-thia-3,5,12,19-tetrazatricyclo[12.3.1.14,8]nonadeca-1(18),4(19),5,7,14,16-hexaen-13-one]
> 60 | > 6.00 | +++ (+++ is >60%) |  |  | Cc1cccc(C)c1-c1cc2nc(n1)NS(=O)(=O)c1cccc(c1)C(=O)N(Cc1cnc3cc(C(C)(C)C)n(C)c3n1)[C@H](COC(C)C)CO2 [Compound I-185]
> 60 | > 6.00 | +++ (+++ is >60%) |  |  | Cc1cccc(C)c1-c1cc2nc(n1)NS(=O)(=O)c1cccc(c1)C(=O)N(Cc1cnc3oc(C(C)(C)C)cc3n1)[C@H](CC(C)(C)C)CO2 [Compound I-218]
> 60 | > 6.00 | +++ (+++ is >60%) |  |  | Cc1cccc(C)c1-c1nc2nc(c1C)OC[C@@H](CC13CC(C1)C3)N(Cc1cnc3oc(C4(C)CC4)cc3n1)C(=O)c1cccc(c1)S(=O)(=O)N2 [Compound I-231]
> 60 | > 6.00 | +++ (+++ is >60%) |  |  | Cc1cccc(C)c1-c1cc2nc(n1)NS(=O)(=O)c1cccc(c1)C(=O)N(Cc1cnc3cc(C4(C)CC4)n(C)c3n1)[C@H](COC(C)C)CO2 [Compound I-240]
> 60 | 5.52 to 6.00 | +++ (+++ is >60%) |  |  | Cc1cccc(C)c1-c1cc2nc(n1)NS(=O)(=O)c1cccc(c1)C(=O)N(Cc1ncc3cc(C4CC4)n(C)c3n1)[C@H](CC1(C)CC1)CO2 [Compound I-263]
 | > 6.00 |  | > 60 | +++ (+++ is >60%) | Cc1cccc(C)c1-c1nc2nc(c1C)OC[C@@H](COC(C)C)N(Cc1cnc3cc(C4(C)CC4)n(C)c3n1)C(=O)c1cccc(c1)S(=O)(=O)N2 [IV-2]
 | 5.52 to 6.00 |  | > 60 | +++ (+++ is >60%) | Cc1cccc(C)c1-c1cc2nc(n1)NS(=O)(=O)c1cccc(c1)C(=O)N(Cc1cnc3oc(C(C)(C)C)cc3n1)[C@H](CC1(C)CCC1)CO2 [IV-5]
 | 5.52 to 6.00 |  | > 60 | +++ (+++ is >60%) | COc1c2nc(nc1-c1c(C)cccc1C)NS(=O)(=O)c1cccc(c1)C(=O)N(Cc1cnc3oc(C(C)(C)C)cc3n1)[C@H](CC1(C)CC1)CO2 [IV-12]
 | 5.52 to 6.00 |  | > 60 | +++ (+++ is >60%) | Cc1cccc(C)c1-c1cc2nc(n1)NS(=O)(=O)c1cccc(c1)C(=O)N(Cc1cnc3oc(COC(C)C)cc3n1)[C@H](CC1(C)CC1)CO2 [IV-18]
